Reference: ChEMBL document CHEMBL4811256, “Synthesis and evaluation of multi-target-directed ligands with BACE-1 inhibitory and Nrf2 agonist activities as potential agents against Alzheimer's disease” (Eur J Med Chem, 2021)
Activity calls are given as the source filed them. No cut-off for these calls is given here.

Experiments:
PC-12 [1] = assay: Cytoprotective activity against 6-OHDA-induced oxidative stress in rat PC-12 cells assessed as decrease in cell death at 10 uM pretreated with brusatol for 1 hr followed by compound treatment for 12 hrs and subsequent 6-OHDA challenge by MTT assay; assay type: functional, cell-based
PC-12 [2] = assay: Activation of Keap1-Nrf2-ARE pathway in rat PC-12 assessed as upregulation of HO-1 protein expression measured after 12 hrs by Western blot analysis; conditions: filed as activator, dose 2.5-10 µM
HEK293 = assay: Inhibition of amyloid beta(1 to 40) secretion in human HEK293T cells transfected with human APP harboring Swedish double mutant K595N/M596L measured after 24 hrs by ELISA; assay type: functional, cell-based; conditions: dose 2.5-10 µM
[3] = target: T1, Nuclear factor erythroid 2-related factor 2 (Mus musculus) (UniProt Q60795); assay: Activation of Nrf2 in mouse BV-2 cells assessed as upregulation of Nrf2 protein expression after 24 hrs by Western blot analysis; assay type: cell-based; conditions: filed as activator, dose 2.5-10 µM
T1 sequence (whole entry): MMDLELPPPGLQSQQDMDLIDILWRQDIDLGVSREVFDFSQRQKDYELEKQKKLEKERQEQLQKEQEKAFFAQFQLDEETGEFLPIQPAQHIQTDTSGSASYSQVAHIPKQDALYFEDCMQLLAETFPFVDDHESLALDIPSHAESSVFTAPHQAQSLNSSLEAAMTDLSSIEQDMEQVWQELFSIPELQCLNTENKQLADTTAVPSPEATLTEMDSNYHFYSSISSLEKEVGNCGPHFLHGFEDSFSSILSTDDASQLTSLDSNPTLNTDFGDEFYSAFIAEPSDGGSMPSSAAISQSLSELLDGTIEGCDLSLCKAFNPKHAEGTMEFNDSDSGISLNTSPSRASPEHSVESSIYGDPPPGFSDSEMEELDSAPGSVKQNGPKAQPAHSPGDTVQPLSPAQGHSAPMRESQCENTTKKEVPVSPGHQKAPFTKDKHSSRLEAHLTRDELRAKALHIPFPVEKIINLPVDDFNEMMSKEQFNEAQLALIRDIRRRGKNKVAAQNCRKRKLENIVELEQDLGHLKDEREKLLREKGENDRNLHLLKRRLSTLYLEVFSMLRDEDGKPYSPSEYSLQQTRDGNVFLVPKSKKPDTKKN

PC-12 [4] = assay: Protection against H2O2-induced ROS accumulation in rat PC-12 cells assessed as intracellular ROS level by measuring mean fluorescence intensity pretreated for 12 hrs followed by H2O2 challenge by DCFH-DA staining based flow cytometry; assay type: functional, cell-based; conditions: dose 2.5-10 µM
PC-12 [5] = assay: Protection against H2O2-induced mitochondrial dysfunction in rat PC-12 cells assessed as change in mitochondrial membrane potential at 2.5 uM pretreated with compound for 12 hrs followed by H2O2 challenge by JC-1 staining based flow cytometry (reference value: 73 %); assay type: functional
[6] = Glutathione peroxidase-like activity in pH 7.5 potassium phosphate buffer assessed as catalytic reduction of H2O2 by measuring initial velocity at 25 degreeC using GSH in presence of NADPH by UV absorbance analysis (reference value: 30.41+/- 2.06 microM/min); assay type: functional
PC-12 [7] = assay: Cytoprotective activity against H2O2-induced cell damage in rat PC-12 cells transfected with Nrf2 siRNA at 10 uM; assay type: functional, cell-based
PC-12 [8] = assay: Cytoprotective activity against 6-OHDA-induced oxidative stress in rat PC-12 cells assessed as decrease in cell death at 10 uM pretreated for 12 hrs followed by 6-OHDA challenge by MTT assay; assay type: functional, cell-based
PC-12 [9] = assay: Activation of Keap1-Nrf2-ARE pathway in rat PC-12 assessed as induction of accumulation of Nrf2 in nucleus at 10 uM measured after 3 hrs by Western blot analysis; conditions: filed as activator
PC-12 [10] = assay: Activation of Keap1-Nrf2-ARE pathway in rat PC-12 assessed as accumulation of Nrf2 in cytosol at 10 uM measured up to 24 hrs by Western blot analysis; assay type: subcellular; conditions: filed as activator, time hrs <=24
PC-12 [11] = assay: Activation of Keap1-Nrf2-ARE pathway in rat PC-12 assessed as upregulation of NQO1 protein expression measured after 12 hrs by Western blot analysis; conditions: filed as activator, dose 2.5-10 µM
PC-12 [12] = assay: Neuroprotective activity against H2O2-induced cell damage in rat PC-12 cells assessed as decrease in cell death at 10 uM pretreated for 12 hrs followed by H2O2 challenge by MTT assay; assay type: functional, cell-based
PC-12 [13] = assay: Protection against H2O2-induced apoptosis in rat PC-12 cells assessed as viable cells at 2.5 uM pretreated for 12 hrs followed by H2O2 challenge by annexin V FITC/propidium iodide staining based flow cytometry (reference value: 73.3 %); assay type: functional; conditions: read-out: Activity
PC-12 [14] = assay: Activation of Keap1-Nrf2-ARE pathway in rat PC-12 assessed as upregulation of TrxR1 protein expression at 10 uM measured after 6 to 24 hrs by Western blot analysis; conditions: filed as activator, time 6-24 hrs
PC-12 [15] = assay: Protection against H2O2-induced mitochondrial dysfunction in rat PC-12 cells assessed as change in mitochondrial membrane potential at 10 uM pretreated with compound for 12 hrs followed by H2O2 challenge by JC-1 staining based flow cytometry (reference value: 73 %); assay type: functional
PC-12 [16] = assay: Cytoprotective activity against H2O2- induced cell death in rat PC-12 cells assessed as increase in viable cells at 10 uM pretreated for 12 hrs followed by H2O2 challenge by MTT assay relative to control; assay type: functional
PC-12 [17] = assay: Protection against 6-OHDA-induced apoptosis in rat PC-12 cells assessed as necrotic cells at 5 uM pretreated for 12 hrs followed by 6-OHDA challenge by annexin V FITC/propidium iodide staining based flow cytometry (reference value: 3.7 %); assay type: functional
PC-12 [18] = assay: Protection against 6-OHDA-induced mitochondrial dysfunction in rat PC-12 cells assessed as change in mitochondrial membrane potential at 5 uM pretreated with compound for 12 hrs followed by 6-OHDA challenge by JC-1 staining based flow cytometry (reference value: 56 %); assay type: functional
PC-12 [19] = assay: Protection against H2O2-induced apoptosis in rat PC-12 cells assessed as late apoptic cells at 5 uM pretreated for 12 hrs followed by H2O2 challenge by annexin V FITC/propidium iodide staining based flow cytometry (reference value: 20.8 %); assay type: functional
PC-12 [20] = assay: Protection against H2O2-induced apoptosis in rat PC-12 cells assessed as early apoptic cells at 10 uM pretreated for 12 hrs followed by H2O2 challenge by annexin V FITC/propidium iodide staining based flow cytometry (reference value: 2.2 %); assay type: functional
PC-12 [21] = assay: Protection against H2O2-induced apoptosis in rat PC-12 cells assessed as late apoptic cells at 10 uM pretreated for 12 hrs followed by H2O2 challenge by annexin V FITC/propidium iodide staining based flow cytometry (reference value: 20.8 %); assay type: functional
[22] = target: T1, Nuclear factor erythroid 2-related factor 2 (Mus musculus); assay: Activation of Nrf2 in mouse BV-2 cells assessed as decrease in LPS-induced IL-6 production pretreated with compound for 2 hrs followed by LPS stimulation and further incubated for 18 hrs […]; assay type: cell-based; conditions: filed as activator, dose 10.0 µM, time 20.0 hrs
PC-12 [23] = assay: Protection against 6-OHDA-induced apoptosis in rat PC-12 cells assessed as viable cells at 5 uM pretreated for 12 hrs followed by 6-OHDA challenge by annexin V FITC/propidium iodide staining based flow cytometry (reference value: 76.7 %); assay type: functional; conditions: read-out: Activity

With `CN1C(N)=N[C@](C)(c2cc(-n3[se]c4cc(F)ccc4c3=O)ccc2F)CS1(=O)=O` as the compound, how does the Activity (PC-12 [1]) read?
Its Activity is “inactive”.

And the Activity (PC-12 [2])?
Its Activity is “Active”.

What about the inhibition (HEK293) of the same compound?
Its inhibition is “Active”.

And the Activity [3]?
The Activity was “Dose-Dependent Effect”.

What about the Activity (PC-12 [4]) of the same compound?
The Activity was “Dose-Dependent Effect”.

What about the Activity (PC-12 [5]) of the same compound?
The Activity was 75.1%.

And the V0 [6]?
Its V0 is 183 µM/min.

And the Activity (PC-12 [7])?
Its Activity is “inactive”.

And the Activity (PC-12 [8])?
The Activity was “Active”.

And the Activity (PC-12 [9])?
The Activity was “Active”.

And the Activity (PC-12 [10])?
Its Activity is “Active”.

And the Activity (PC-12 [11])?
Its Activity is “Active”.

What about the Activity (PC-12 [12]) of the same compound?
Its Activity is “Active”.

What about the viability at 2.5 µM (PC-12 [13]) of the same compound?
The viability at 2.5 µM was 83.6%.

And the Activity (PC-12 [14])?
The Activity was “Active”.

What about the Activity (PC-12 [15]) of the same compound?
Its Activity is 89.1%.

And the Activity (PC-12 [16])?
The Activity was 80%.

And the Activity (PC-12 [17])?
The Activity was 2.3%.

What about the Activity (PC-12 [18]) of the same compound?
The Activity was 64.8%.

And the Activity (PC-12 [19])?
Its Activity is 8.1%.

And the Activity (PC-12 [20])?
The Activity was 2.1%.

What about the Activity (PC-12 [21]) of the same compound?
The Activity was 4.7%.

What about the Activity [22] of the same compound?
The Activity was “Active”.

And the viability at 5 µM (PC-12 [23])?
Its viability at 5 µM is 83.4%.
